In brackets after ≈: the same amount, converted by molar mass.

We go through 23 molecules from ChEMBL document CHEMBL5104114, “Synthesis and medicinal chemistry of tetronamides: Promising agrochemicals and antitumoral compounds” (Bioorg Med Chem, 2022).

Series [1] is described as follows: Inhibition of mitochondrial complex III (unknown origin). On the set-up: species or system Homo sapiens.
Series [2] can be described thus: Toxicity in Myzus persicae assessed as mortality relative to control.
A further series has as its system Pseudomonas aeruginosa. The series is described as follows: Antibacterial activity against Pseudomonas aeruginosa. The format is functional.
Series [3] has as its system Escherichia coli. The series is described as follows: Antibacterial activity against Escherichia coli ATCC 25922. The format is functional.
A further series concerns Klebsiella pneumoniae. Briefly: Antibacterial activity against Klebsiella pneumoniae patient isolate. The series is classed as functional.
Series [4] can be described thus: Toxicity in Myzus persicae assessed as mortality at 20 mg/L relative to control. The conditions noted are these: at 20 µg/mL.
The subject of a further series is P388. Briefly: Cytotoxicity against mouse P388 cells measured after 48 hrs by MTT assay. The format is functional, cell-based. To be noted: P388, 48 h.
Series [5] is described as follows: Toxicity in Myzus persicae assessed as mortality at 0.80 mg/L relative to control. To be noted: at 0.8 µg/mL, dose 0.8 mg/L.
A short description of series [6]: Reversal of heartbeat inhibition in embryonic chicken cardiac cells. The format is functional, cell-based, Gallus gallus. The conditions noted are these: cardiac muscle cell.
The subject of another series is A549. The series is described as follows: Antiproliferative activity against human A549 cells assessed as inhibition of cell growth at 100 uM by MTT assay relative to control. The format is functional.
For series [7], the target named is ATP-sensitive inward rectifier potassium channel 1 (Homo sapiens, UniProt P48048). Briefly: Inhibition of ROMK (unknown origin) by Thallium Efflux assay.
ATP-sensitive inward rectifier potassium channel 1, sequence (P48048 whole entry): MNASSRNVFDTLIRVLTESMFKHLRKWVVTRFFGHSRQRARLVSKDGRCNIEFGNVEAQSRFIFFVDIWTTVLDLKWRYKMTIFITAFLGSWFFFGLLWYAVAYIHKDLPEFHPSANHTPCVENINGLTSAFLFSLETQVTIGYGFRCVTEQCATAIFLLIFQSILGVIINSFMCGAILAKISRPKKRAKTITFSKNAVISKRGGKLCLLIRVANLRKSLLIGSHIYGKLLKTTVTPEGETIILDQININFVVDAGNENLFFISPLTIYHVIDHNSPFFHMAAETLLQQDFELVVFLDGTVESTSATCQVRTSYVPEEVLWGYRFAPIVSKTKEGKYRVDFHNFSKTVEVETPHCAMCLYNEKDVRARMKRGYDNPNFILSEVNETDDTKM
For series [8], the system named is Escherichia coli. Briefly: Antibacterial activity against Escherichia coli. The series is classed as functional.
The next series concerns Staphylococcus aureus. Briefly: Antibacterial activity against Staphylococcus aureus. The format is functional.
Another series relates to Porphyromonas gingivalis. Briefly: Antibacterial activity against Porphyromonas gingivalis ATCC 33277 by REMA. The series is classed as functional.
For series [9], the system named is Mycobacterium tuberculosis. The series is described as follows: Antibacterial activity against Mycobacterium tuberculosis ATCC 27294 by REMA. The series is classed as functional.
A further series has as its system Synechococcus elongatus. The series is described as follows: Antibacterial activity against Synechococcus elongatus PCC 6301 by plate reader method. The format is functional, organism-based.
Series [10] can be described thus: Toxicity in Spodoptera littoralis larvae. On the set-up: species or system Larva.
For a further series, the system named is Aeromonas salmonicida. Briefly: Antimicrobial activity against Aeromonas salmonicida ATCC 14174. The series is classed as functional.
The test system of a further series is Vibrio anguillarum. Briefly: Antibacterial activity against Vibrio anguillarum NCMB6. The format is functional.
A further series relates to Brevibacillus brevis. The series is described as follows: Antibacterial activity against Bacillus brevis. The series is classed as functional.
Another series deals with Streptomyces sp. The series is described as follows: Antibacterial activity against Streptomyces sp. ATCC 23836. The format is functional.
The test system of another series is Botrytis cinerea. The series is described as follows: […] activity against Botrytis cinerea. The series is classed as functional.
Series [11] is described as follows: Inhibition of DNA in mouse L1210 cells. The series is classed as cell-based.
Series [12] in a line: Inhibition of RNA in mouse L1210 cells. The format is cell-based.
A short description of series [13]: Toxicity in mouse engrafted with mouse L1210 cells assessed as lethal dose measured per […]. The format is cell-based.
Series [14] can be described thus: Toxicity in Aphis craccivora assessed as mortality at 100 mg/ml relative to control. On the set-up: dose or concentration left out as unconfirmed.
Series [15] can be described thus: Toxicity in Nilaparvata lugens assessed as mortality at 100 mg/ml relative to control. On the set-up: dose or concentration left out as unconfirmed.
The nature of series [16]: Toxicity in Anopheles darlingi larvae measured after 48 hrs. On the set-up: species or system Larva.
A short description of series [17]: Toxicity in Aphis gossypii assessed as mortality at 4 mg/L relative to control. The conditions noted are these: at 4 µg/mL.
Series [18] is described as follows: Inhibition of serotonin induced dermal vascular permeability in Sprague-Dawley rat blood vessels at 100 mg/kg, ip measured after 5 mins relative to control. The format is functional. The conditions noted are these: Blood vessel.
Series [19] in a line: Inhibition of histamine induced dermal vascular permeability in Sprague-Dawley rat blood vessels at 100 mg/kg, ip measured after 5 mins relative to control. The format is functional. To be noted: Blood vessel.
A short description of series [20]: Inhibition of bradykinin induced dermal vascular permeability in Sprague-Dawley rat blood vessels at 100 mg/kg, ip measured after 5 mins relative to control. To be noted: Blood vessel. The series is classed as functional.
For another series, the system named is SMMC-7721. Briefly: Antiproliferative activity against human […] cells measured after 24 hrs by MTT assay. The series is classed as functional, cell-based. To be noted: SMMC-7721, 24 h.
A short description of series [21]: Cytotoxicity against human L02 cells measured after 24 hrs by MTT assay. The series is classed as toxicity, cell-based.
In a further series the test system is HCT-116. Briefly: Antiproliferative activity against human HCT-116 cells measured after 48 hrs by MTT assay. The series is classed as cell-based. The conditions noted are these: HCT-116, 48 h.
A further series relates to MCF7. The series is described as follows: Antiproliferative activity against human MCF7 cells measured after 48 hrs by MTT assay. The series is classed as cell-based. The conditions noted are these: MCF7, 48 h.
For a further series, the system named is DU-145. Briefly: Antiproliferative activity against human DU-145 cells measured after 48 hrs by MTT assay. The series is classed as cell-based. To be noted: DU-145, 48 h.
Series [22] in a line: Toxicity in Nilaparvata lugens assessed as mortality at 20 mg/L relative to control. The conditions noted are these: at 20 µg/mL.
A short description of series [23]: Toxicity in Aphis craccivora assessed as mortality at 20 mg/L relative to control. To be noted: at 20 µg/mL.
The test system of the next series is Leishmania amazonensis. The series is described as follows: Antileishmanial activity against Leishmania amazonensis incubated for 24 hrs. The format is functional, organism-based.

In [1], `CCCCCC[C@H](O)CCC[C@H](O)[C@H]1CC[C@H]([C@H]2CC[C@H]([C@H](O)CCCCCCCCCCCCC3=C(N)[C@H](C)OC3=O)O2)O1` displayed an IC50 of 40 nM.

As to `N#CC1(c2cncc(Cl)c2)CC2CCC(C1)N2CC(F)F` (stereo unspecified), the Activity in series [2] is on record as over 80%.

Take `COC1OC(=O)C(Br)=C1n1cnc2cc(C)c(C)cc21` (stereo unspecified): the MIC50 in the series with Pseudomonas aeruginosa was 8 µg/mL (≈ 23.7 µM); in the series on Escherichia coli [3], 2 µg/mL (≈ 5.93 µM); in the series with Klebsiella pneumoniae it was 16 µg/mL (≈ 47.5 µM).

For `O=C1C=C(N(CCF)Cc2cnc(Cl)c(Cl)c2)CO1`, the Activity in [4] came out at 100%.

For `COc1cc(C2C3=C(COC3=O)Nc3cc4c(cc32)OCO4)cc(OC)c1OC` (stereo unspecified), in the series on P388, the IC50 was determined as 4530 nM.

As for `NCCN(Cc1ccc(Cl)nc1)C1=CC(=O)OC1`, in series [5], the Activity was found to be 100%.

For `CCOC(=O)C1C(C)NC2=C(C(=O)OC2)C1c1ccccc1OC(F)F` (stereo unspecified), the half-maximal effective concentration (EC50) in series [6] came out at 60 nM.

As for `CC[C@H](C)[C@H](NC1=C(Br)C(=O)O[C@@H]1O[C@@H]1C[C@H](C)CC[C@H]1C(C)C)C(=O)OC`, the inhibition at 100 µM with A549 came to 97.2%.

As to `CCN(CC)C1=C(Cl)C(=O)OC1OC` (stereo unspecified), the inhibition at 100 µM in the series on A549 was determined as 80.5%.

With `Cc1c([C@H](O)CN2CCC3(CC2)CCN(C2=C(F)C(=O)OC2)CC3)ccc2c1COC2=O`, the IC50 in series [7] is 7 nM.

With `O=C1OC2C(=C1Cl)N2Cc1ccccc1` (stereo unspecified), the results for the MIC50 in the series with Pseudomonas aeruginosa, against Escherichia coli [8] and against Staphylococcus aureus were 16 µg/mL (≈ 72.2 µM), 8 µg/mL (≈ 36.1 µM) and 4 µg/mL (≈ 18 µM), respectively.

On to `COc1cc(C2C3=C(COC3=O)Nc3cc4c(cc32)OCO4)c([N+](=O)[O-])cc1OC` (stereo unspecified), for which the MIC50 against Porphyromonas gingivalis amounted to 25 µg/mL (≈ 60.6 µM); in series [9], 250 µg/mL (≈ 606 µM).

In the series with Synechococcus elongatus, `O=C1O[C@@H]([C@H](O)c2ccc(-c3ccccc3)cc2)C(Nc2ccc(Br)cc2)=C1Cl` returned a half-inhibitory concentration (IC50) of 1300 nM.

`Cc1ccc(NC2=C(Cl)C(=O)O[C@H]2[C@H](O)c2ccc(-c3ccccc3)cc2)cc1` registered an IC50 in the series with Synechococcus elongatus of 4400 nM.

`CCCC[C@@]12[C@@H]3C[C@H]4[C@H]5[C@H](C)/C(=C6/OC(=O)C(C)=C6OC)O[C@]5(O3)[C@@H]1CCN42` displayed an LC50 in series [10] of 2 µg/mL (≈ 5.16 µM).

In the case of `CCOC(=O)[C@H](Cc1ccccc1)NC1=C(Cl)C(=O)O[C@@H]1O[C@@H]1C[C@H](C)CC[C@H]1C(C)C`, the inhibition at 100 µM with A549 turned out to be 91.8%.

Consider `NC1=CC(=O)O/C1=C/C=O`, for which the MIC50 with Aeromonas salmonicida worked out at 100 µg/mL (≈ 719 µM); with Vibrio anguillarum, 100 µg/mL (≈ 719 µM); against Brevibacillus brevis, 50 µg/mL (≈ 359 µM); against Streptomyces sp., 100 µg/mL (≈ 719 µM); in the series on Botrytis cinerea, 100 µg/mL (≈ 719 µM). Also, the IC50 in [11] came to 0.4 µg/mL (≈ 2.88 µM); in series [12], 0.6 µg/mL (≈ 4.31 µM). Besides, the LC50 in series [13] worked out at 6.25 mg.

As for `O=C1C=C(N(Cc2ccc(Cl)nc2)CC(F)F)CO1`, the Activity in [14] was found to be 90%; in [15] it was 100%; in series [5], 100%; in series [17] it was 98%. Also, in series [16], the LC50 came to 1.18 µg/mL (≈ 4.09 µM).

Consider `O=C(N[C@H]1C[C@@H]1c1ccccc1)C1=C(Nc2ccc(Cl)cc2)COC1=O`, for which the inhibition in vivo at 100 mg/kg is 94% in [18], 92% in series [19] and 100% in series [20].

On to `COC1OC(=O)C(Cl)=C1N1CCN(CCCCCC[C@H]2CN([C@@H]3OC4O[C@]5(C)CC[C@H]6[C@H](C)CC[C@@H]([C@H]3C)[C@@]46OO5)CCS2(=O)=O)CC1` (stereo partly specified), for which the half-inhibitory concentration (IC50) with SMMC-7721 turned out to be 30 nM; in the series with HCT-116 it was 10 nM; with MCF7, 10 nM; in the series on DU-145 it was 20 nM. In series [21], this molecule returned a half-inhibitory concentration (IC50) at 24 h of 70000 nM.

On to `COc1cc([C@@H]2c3cc4c(cc3[C@H](O)[C@H]3COC(=O)[C@H]23)OCO4)cc(OC)c1OC` [PODOFILOX], for which, in the series on P388, the IC50 turned out to be 10400 nM.

In the case of `CN(Cc1ccc(Cl)nc1)C1=C(Br)C(=O)OC1OCCF` (stereo unspecified), the Activity in series [22] was 92%; in series [23], 100%.

In the series with Leishmania amazonensis, `COc1cc2c(c(OC)c1OC)C(c1ccc(C(F)(F)F)cc1)C1=C(COC1=O)N2` (stereo unspecified) showed an IC50 of 6220 nM.
